Legend:
[1] = xn = mol fraction of the nth substance listed; details: 101 kPa, Liquid; for viscosity: Capillary tube (Ostwald / Ubbelohde) method; for mass density: Vibrating tube method
[2] = refractive index (Na D-line) (dimensionless); xn = mol fraction of the nth substance listed; details: 101 kPa, Liquid, Standard Abbe refractometry

CCC(C)O (configuration not stated) [butan-2-ol] + CC#N
Details | mass density, [1] [kg/m3] | refractive index, [2] | viscosity, [1] [mPa·s]
293.15 K, x2 = 0 | 806.57 | 1.3966 | 3.912
293.15 K, x2 = 0.0844 | 804.53 | 1.3952 | 2.503
293.15 K, x2 = 0.1644 | 802.5 | 1.393 | 1.654
293.15 K, x2 = 0.2516 | 800.41 | 1.3899 | 1.376
293.15 K, x2 = 0.3369 | 798.33 | 1.386 | 1.089
293.15 K, x2 = 0.4444 | 795.68 | 1.3804 | 0.8564
293.15 K, x2 = 0.5382 | 793.35 | 1.3751 | 0.6953
293.15 K, x2 = 0.6425 | 790.7 | 1.3686 | 0.5565
293.15 K, x2 = 0.761 | 788.1 | 1.361 | 0.4636
293.15 K, x2 = 0.8715 | 785.92 | 1.3534 | 0.3984
293.15 K, x2 = 0.9588 | 783.48 | 1.3467 | 0.3663
298.15 K, x2 = 0 | 802.56 | 1.3946 | 3.132
298.15 K, x2 = 0.0844 | 800.28 | 1.3918 | 2.135
298.15 K, x2 = 0.1644 | 798.07 | 1.3893 | 1.574
298.15 K, x2 = 0.2516 | 795.79 | 1.3865 | 1.218
298.15 K, x2 = 0.3369 | 793.63 | 1.383 | 0.992
298.15 K, x2 = 0.4444 | 790.96 | 1.3782 | 0.7937
298.15 K, x2 = 0.5382 | 788.5 | 1.3734 | 0.6498
298.15 K, x2 = 0.6425 | 785.67 | 1.3674 | 0.518
298.15 K, x2 = 0.761 | 782.65 | 1.3597 | 0.4216
298.15 K, x2 = 0.8715 | 779.99 | 1.3518 | 0.3868
298.15 K, x2 = 0.9588 | 777.71 | 1.3448 | 0.3632
303.15 K, x2 = 0 | 798.26 | 1.3924 | 2.534
303.15 K, x2 = 0.0844 | 795.95 | 1.3902 | 1.794
303.15 K, x2 = 0.1644 | 793.74 | 1.3886 | 1.383
303.15 K, x2 = 0.2516 | 791.38 | 1.386 | 1.082
303.15 K, x2 = 0.3369 | 789.07 | 1.3829 | 0.8873
303.15 K, x2 = 0.4444 | 786.17 | 1.3779 | 0.7129
303.15 K, x2 = 0.5382 | 783.62 | 1.3722 | 0.5936
303.15 K, x2 = 0.6425 | 780.73 | 1.3656 | 0.4865
303.15 K, x2 = 0.761 | 777.45 | 1.3575 | 0.4019
303.15 K, x2 = 0.8715 | 774.43 | 1.3495 | 0.3612
303.15 K, x2 = 0.9588 | 772.05 | 1.3426 | 0.3414
308.15 K, x2 = 0 | 793.96 | 1.3905 | 2.172
308.15 K, x2 = 0.0844 | 791.55 | 1.3876 | 1.572
308.15 K, x2 = 0.1644 | 789.27 | 1.3853 | 1.213
308.15 K, x2 = 0.2516 | 786.77 | 1.3825 | 0.9642
308.15 K, x2 = 0.3369 | 784.37 | 1.3799 | 0.8021
308.15 K, x2 = 0.4444 | 781.35 | 1.3753 | 0.6524
308.15 K, x2 = 0.5382 | 778.69 | 1.3713 | 0.5479
308.15 K, x2 = 0.6425 | 775.68 | 1.3659 | 0.4533
308.15 K, x2 = 0.761 | 772.27 | 1.3592 | 0.379
308.15 K, x2 = 0.8715 | 768.99 | 1.351 | 0.3437
308.15 K, x2 = 0.9588 | 766.51 | 1.3423 | 0.3238

Source: the NIST ThermoML archive (doi:10.1016/j.tca.2009.06.015)
